Source: ChEMBL document CHEMBL6120978, “Anticancer activity of salinomycin quaternary phosphonium salts” (Eur J Med Chem, 2025)
Values after ≈ are worked out from the molar mass of the structure shown. Values belong to the compound of their own block, whether it stands above or below them. Active and inactive are the calls of the source. The rule behind the calls is not given here.

Legend:
[1] = tested on: Lipid bilayer; experiment: Induction of ionic transport in azolectin bilayer membrane assessed as irregular disturbance in membrane permeability in presence of HEPES buffer by electrophysiology technique
[2] = tested on: Staphylococcus aureus; experiment: Antimicrobial activity against Staphylococcus aureus ATCC 6538 incubated for 18 hrs by twofold microdilution method; format: functional
[3] = Selectivity index, ratio of IC50 for cytotoxicity against chinese hamster V79 cells to IC50 for cytotoxicity against human SW480 cells; format: toxicity, cell-based; conditions: V79 cells versus SW480 cells, read-out: Ratio IC50
[4] = Cytotoxicity against human HaCaT cells incubated for 72 hrs by MTT assay; format: toxicity, cell-based
[5] = Selectivity index, ratio of IC50 for cytotoxicity against chinese hamster V79 cells to IC50 for cytotoxicity against human SW620 cells; format: toxicity, cell-based; conditions: V79 cells versus SW620 cells, read-out: Ratio IC50
[6] = Selectivity index, ratio of IC50 for cytotoxicity against human HaCaT cells to IC50 for cytotoxicity against human PC-3 cells; format: toxicity, cell-based; conditions: HaCaT cells versus PC-3 cells, read-out: Ratio IC50
[7] = tested on: MDA-MB-231; experiment: Cytotoxicity against human MDA-MB-231 cells incubated for 72 hrs by MTT assay; format: functional, cell-based; conditions: MDA-MB-231, 72 h
[8] = tested on: Lipid bilayer; experiment: Induction of ionic transport in azolectin bilayer membrane assessed as membrane rupture in presence of HEPES buffer by electrophysiology technique
[9] = tested on: A549; experiment: Cytotoxicity against human A549 cells incubated for 72 hrs by MTT assay; format: functional, cell-based; conditions: A549, 72 h
[10] = tested on: Staphylococcus aureus; experiment: Antimicrobial activity against Staphylococcus aureus NCTC 4163 incubated for 18 hrs by twofold microdilution method; format: functional
[11] = Selectivity index, ratio of IC50 for cytotoxicity against chinese hamster V79 cells to IC50 for cytotoxicity against human PC-3 cells; format: toxicity, cell-based; conditions: V79 cells versus PC-3 cells, read-out: Ratio IC50
[12] = Selectivity index, ratio of IC50 for cytotoxicity against human HaCaT cells to IC50 for cytotoxicity against human SW480 cells; format: toxicity, cell-based; conditions: HaCaT cells versus SW480 cells, read-out: Ratio IC50
[13] = Cytotoxicity against chinese hamster V79 cells incubated for 72 hrs by MTT assay; format: toxicity, cell-based, Cricetulus griseus
[14] = tested on: SW480; experiment: Cytotoxicity against human SW480 cells incubated for 72 hrs by MTT assay; format: functional, cell-based; conditions: SW480, 72 h
[15] = tested on: A549; experiment: Induction of mitochondrial respiration in human A549 cells assessed as decrease in oxygen consumption rate at 3 uM by Oxygraph-2K system; format: functional, cell-based
[16] = tested on: A549; experiment: Induction of mitochondrial respiration in human A549 cells assessed as fold increase in oxygen consumption rate at 1 uM by Oxygraph-2K system; format: functional
[17] = tested on: Staphylococcus aureus; experiment: Antimicrobial activity against Staphylococcus aureus ATCC 29213 incubated for 18 hrs by twofold microdilution method; format: functional
[18] = tested on: SW-620; experiment: Cytotoxicity against human SW620 cells incubated for 72 hrs by MTT assay; format: functional, cell-based; conditions: SW-620, 72 h
[19] = tested on: Lipid bilayer; experiment: Induction of ionic transport in azolectin bilayer membrane assessed as specific channel-like structure formation in presence of HEPES buffer by electrophysiology technique
[20] = tested on: Staphylococcus epidermidis; experiment: Antimicrobial activity against Staphylococcus epidermidis ATCC 35984 incubated for 18 hrs by twofold microdilution method; format: functional
[21] = tested on: PC-3; experiment: Cytotoxicity against human PC-3 cells incubated for 72 hrs by MTT assay; format: functional, cell-based; conditions: PC-3, 72 h
[22] = Selectivity index, ratio of IC50 for cytotoxicity against chinese hamster V79 cells to IC50 for cytotoxicity against human A549 cells; format: toxicity, cell-based; conditions: V79 cells versus A549 cells, read-out: Ratio IC50
[23] = tested on: Lipid bilayer; experiment: Induction of current generation in azolectin bilayer membrane in presence of HEPES buffer by electrophysiology technique
[24] = tested on: Pseudomonas aeruginosa; experiment: Antimicrobial activity against Pseudomonas aeruginosa ATCC 15442 incubated for 18 hrs by twofold microdilution method; format: functional
[25] = Selectivity index, ratio of IC50 for cytotoxicity against human HaCaT cells to IC50 for cytotoxicity against human A549 cells; format: toxicity, cell-based; conditions: HaCaT cells versus A549 cells, read-out: Ratio IC50
[26] = Selectivity index, ratio of IC50 for cytotoxicity against chinese hamster V79 cells to IC50 for cytotoxicity against human MDA-MB-231 cells; format: toxicity, cell-based; conditions: V79 cells versus MDA-MB-231 cells, read-out: Ratio IC50
[27] = tested on: Staphylococcus aureus; experiment: Antimicrobial activity against Staphylococcus aureus ATCC 25923 incubated for 18 hrs by twofold microdilution method; format: functional
[28] = tested on: Staphylococcus epidermidis; experiment: Antimicrobial activity against Staphylococcus epidermidis ATCC 12228 incubated for 18 hrs by twofold microdilution method; format: functional
[29] = Selectivity index, ratio of IC50 for cytotoxicity against human HaCaT cells to IC50 for cytotoxicity against human SW620 cells; format: toxicity, cell-based; conditions: HaCaT cells versus SW620 cells, read-out: Ratio IC50
[30] = tested on: Escherichia coli; experiment: Antimicrobial activity against Escherichia coli ATCC 25922 incubated for 18 hrs by twofold microdilution method; format: functional
[31] = Selectivity index, ratio of IC50 for cytotoxicity against human HaCaT cells to IC50 for cytotoxicity against human MDA-MB-231 cells; format: toxicity, cell-based; conditions: HaCaT cells versus MDA-MB-231 cells, read-out: Ratio IC50
[32] = tested on: Mitochondrial membrane; experiment: Induction of mitochondrial membrane potential loss in human A549 cells assessed as red fluorescence at IC50 incubated for 48 hrs MitoTrackerRed CMXRos staining based flow cytometry analysis (reference value: 91.1 %); format: cell membranes
[33] = tested on: Mitochondrial membrane; experiment: Induction of mitochondrial membrane potential loss in human MDA-MB-231 cells assessed as green fluorescence at IC50 incubated for 48 hrs MitoTracker Green FM staining based flow cytometry analysis (reference value: 8.86 %); format: cell membranes
[34] = tested on: MDA-MB-231; experiment: Induction of apoptosis in human MDA-MB-231 cells assessed as early apoptotic cells at IC50 incubated for 72 hrs by Annexin V-FITC staining based flow cytometry analysis (reference value: 4.23 %); format: functional
[35] = tested on: A549; experiment: Effect on mitochondrial function in human A549 cells assessed as change in mean fluorescence intensity at IC50 incubated for 48 hrs by MitoTracker Red CMXRos staining based flow cytometry analysis; format: functional, cell-based
[36] = tested on: A549; experiment: Induction of apoptosis in human A549 cells assessed as late apoptotic cells at IC50 incubated for 72 hrs by Annexin V-FITC staining based flow cytometry analysis (reference value: 1.86 %); format: functional
[37] = tested on: A549; experiment: Induction of apoptosis in human A549 cells assessed as viable cells at IC50 incubated for 72 hrs by Annexin V-FITC staining based flow cytometry analysis (reference value: 95.49 %); format: functional
[38] = tested on: MDA-MB-231; experiment: Induction of ROS generation of human MDA-MB-231 cells at IC50 incubated for 6 hrs by CellROX Green staining based spectrofluorometer analysis; format: functional, cell-based
[39] = tested on: A549; experiment: Induction of apoptosis in human A549 cells assessed as early apoptotic cells at IC50 incubated for 72 hrs by Annexin V-FITC staining based flow cytometry analysis (reference value: 1.68 %); format: functional
[40] = tested on: MDA-MB-231; experiment: Induction of apoptosis in human MDA-MB-231 cells assessed as necrotic cells at IC50 incubated for 72 hrs by Annexin V-FITC staining based flow cytometry analysis (reference value: 1.17 %); format: functional
[41] = tested on: MDA-MB-231; experiment: Effect on mitochondrial mass in human MDA-MB-231 cells assessed as increase in mean fluorescence intensity at IC50 incubated for 48 hrs by MitoTracker Green FM staining based flow cytometry analysis; format: functional, cell-based
[42] = tested on: Mitochondrial membrane; experiment: Induction of mitochondrial membrane potential loss in human MDA-MB-231 cells assessed as red fluorescence at IC50 incubated for 48 hrs MitoTrackerRed CMXRos staining based flow cytometry analysis (reference value: 91.1 %); format: cell membranes
[43] = tested on: Mitochondrial membrane; experiment: Induction of mitochondrial membrane potential loss in human A549 cells assessed as green fluorescence at IC50 incubated for 48 hrs MitoTracker Green FM staining based flow cytometry analysis (reference value: 8.93 %); format: cell membranes
[44] = tested on: A549; experiment: Induction of cell cycle arrest in human A549 cells assessed as change in cell population at IC50 incubated for 24 hrs by propidium iodide staining based flow cytometry analysis; format: functional
[45] = tested on: MDA-MB-231; experiment: Induction of apoptosis in human MDA-MB-231 cells assessed as late apoptotic cells at IC50 incubated for 72 hrs by Annexin V-FITC staining based flow cytometry analysis (reference value: 3.07 %); format: functional
[46] = tested on: A549; experiment: Induction of ROS generation of human A549 cells at IC50 incubated for 6 hrs by CellROX Green staining based spectrofluorometer analysis; format: functional, cell-based
[47] = tested on: A549; experiment: Induction of apoptosis in human A549 cells assessed as necrotic cells at IC50 incubated for 72 hrs by Annexin V-FITC staining based flow cytometry analysis (reference value: 0.97 %); format: functional
[48] = tested on: A549; experiment: Effect on mitochondrial mass in human A549 cells assessed as increase in mean fluorescence intensity at IC50 incubated for 48 hrs by MitoTracker Green FM staining based flow cytometry analysis; format: functional, cell-based
[49] = tested on: MDA-MB-231; experiment: Induction of apoptosis in human MDA-MB-231 cells assessed as viable cells at IC50 incubated for 72 hrs by Annexin V-FITC staining based flow cytometry analysis (reference value: 91.53 %); format: functional

- Activity [1]: inactive
- MIC [2]: 2 µg/mL
- Activity [8]: inactive
- MIC [10]: 2 µg/mL
- MIC [17]: 2 µg/mL
- Activity [19]: inactive
- MIC [20]: 4 µg/mL
- Activity [23]: Dose-dependent-effect
- MIC [24]: > 256 µg/mL
- MIC [27]: 4 µg/mL
- MIC [28]: 4 µg/mL
- MIC [30]: > 256 µg/mL
SMILES: CC[C@@H](C(=O)[C@@H](C)[C@@H](O)[C@H](C)[C@@H]1O[C@@H]([C@@H](CC)C(=O)OCCCC[P+](c2ccccc2)(c2ccccc2)c2ccc(N(C)C)cc2)CC[C@@H]1C)[C@H]1O[C@]2(C=C[C@@H](O)[C@]3(CC[C@@](C)([C@H]4CC[C@](O)(CC)[C@H](C)O4)O3)O2)[C@H](C)C[C@@H]1C.[Br-]
- selectivity ratio [3]: 0.6
- IC50 at 72 h [4]: 1280 nM
- selectivity ratio [5]: 3.4
- selectivity ratio [6]: 0.5
- IC50 [7]: 780 nM
- IC50 [9]: 750 nM
- selectivity ratio [11]: 0.1
- selectivity ratio [12]: 2.2
- IC50 at 72 h [13]: 370 nM
- IC50 [14]: 570 nM
- Activity [15]: inactive
- fold change (FC) [16]: 2.5
- IC50 [18]: 110 nM
- IC50 [21]: 2520 nM
- selectivity ratio [22]: 0.5
- selectivity ratio [25]: 1.7
- selectivity ratio [26]: 0.5
- selectivity ratio [29]: 11.6
- selectivity ratio [31]: 1.6

SMILES: CC[C@@H](C(=O)[C@@H](C)[C@@H](O)[C@H](C)[C@@H]1O[C@@H]([C@@H](CC)C(=O)OCc2ccccc2)CC[C@@H]1C)[C@H]1O[C@]2(C=C[C@@H](O)[C@]3(CC[C@@](C)([C@H]4CC[C@](O)(CC)[C@H](C)O4)O3)O2)[C@H](C)C[C@@H]1C
- Activity [32]: 74.5%
- MIC [2]: 32 µg/mL (≈ 38 µM)
- selectivity ratio [3]: 1.7
- IC50 at 72 h [4]: 8000 nM
- selectivity ratio [5]: 0.8
- selectivity ratio [6]: 0.9
- IC50 [7]: 16500 nM
- Activity [33]: 19.6%
- Activity [34]: 6.5%
- IC50 [9]: 7520 nM
- MIC [10]: 64 µg/mL (≈ 76.1 µM)
- Activity [35]: inactive
- selectivity ratio [11]: 0.7
- selectivity ratio [12]: 2.3
- IC50 at 72 h [13]: 5830 nM
- IC50 [14]: 3480 nM
- Activity [36]: 2.76%
- Activity [37]: 84.65%
- Activity [38]: Active; Slight Insignificant Increase In Ros Level Was Observed
- MIC [17]: 64 µg/mL (≈ 76.1 µM)
- Activity [39]: 10.57%
- IC50 [18]: 7770 nM
- Activity [40]: 2.17%
- Activity [41]: Active; Slight Increase In Mfi Is Observed
- Activity [42]: 79.7%
- Activity [43]: 25.5%
- Activity [44]: inactive
- Activity [45]: 7.41%
- MIC [20]: > 256 µg/mL
- IC50 [21]: 8790 nM
- Activity [46]: Active; Slight Insignificant Increase In Ros Level Was Observed
- selectivity ratio [22]: 0.8
- Activity [47]: 2.02%
- MIC [24]: > 256 µg/mL
- selectivity ratio [25]: 1.1
- selectivity ratio [26]: 0.3
- MIC [27]: 64 µg/mL (≈ 76.1 µM)
- Activity [48]: Active; Slight Increase In Mfi Is Observed
- MIC [28]: 64 µg/mL (≈ 76.1 µM)
- Activity [49]: 83.92%
- selectivity ratio [29]: 1
- MIC [30]: > 256 µg/mL
- selectivity ratio [31]: 0.5
